In patent US20260001889A1, “COMPOSITIONS USEFUL FOR MODULATING SPLICING” (Skyhawk Therapeutics, Inc., priority 2022, published 2026):

These molecules were tested on ATXN3-HiBiT protein (assay: ATXN3 Total Protein Assay (Kelly-ATXN3-HiBiT luminescence)). Conditions: Kelly-ATXN3-HiBiT cells, 48 h after addition of compound.
Format: cell-based
Excerpt: Example 36: ATXN3 Total Protein Assay
To monitor ATXN3 protein levels by luminescence, a Kelly-ATXN3-HiBiT cell line with homozygous knock-in of HiBiT at the C-terminus of the endogenous ATXN3 gene was used (knock-in of the HiBiT-tag coding sequence SEQ ID NO. 14: 5′[…]3′ into exon 11 of ATXN3-position 1114 of ATXN3 RefSeq NM_004993.6). Manipulations of the Kelly-ATXN3-HiBiT cell line that result in downregulation of the ATXN3-HiBiT protein (through modulation of ATXN3-HiBiT pre-mRNA splicing) can be followed by monitoring the luminescence signal of the HiBiT tag using the Nano Glo HiBiT Lytic Detection System (Promega, #N3050). Kelly-ATXN3-HiBiT cells were maintained in RPMI 1640 w/Glutamax (Gibco, #61870010), 10% FBS (Sigma Aldrich, #F8687), 1% Penicillin/Streptomycin (Gibco, #15140-122) at 37° C., 5% CO2. To assess HiBiT-luminescence signal upon compound treatment, 2000 Kelly-ATXN3-HiBiT cells were seeded per well in 384 plate format. Compounds were added 24 h after seeding. ATXN3-HiBiT-luminescence signal was read out 48 h after addition of the compound using the Nano Glo HiBiT Lytic Detection System (Promega, #N3050) according to the manufacturer's instructions. To control for cell viability, an identically prepared sister plate was read out with the CellTiter-Glo® 2.0 Assay (Promega, #G9243) according to the manufacturer's instructions. Fold changes of ATXN3-HiBiT-luminescence and of CellTiter-Glo viability signals were calculated relative to a DMSO control condition.

SMILES	EC50
[2H]C([2H])([2H])[C@H](N)Cc1oc2c(NCc3cccs3)cc(Cl)nc2c1C#C [Compound 270, 2-[(S)-2-amino(3,3,3-^2H3)propyl]-5-chloro-3-ethynyl-7-thenylamino-1-oxa-4-azaindene]	0.01 to 100 nM
[2H]C([2H])([2H])[C@@H](N)Cc1oc2c(NCc3cccs3)cc(Cl)nc2c1C#C [Compound 271, 2-[(R)-2-amino(3,3,3-^2H3)propyl]-5-chloro-3-ethynyl-7-thenylamino-1-oxa-4-azaindene]	101 to 500 nM
[2H]C([2H])([2H])OCC[C@H](N)Cc1oc2c(NCc3cccs3)cc(Cl)nc2c1Cl [Compound 273, 2-[(S)-2-amino-4-(^2H3)methoxybutyl]-3,5-dichloro-7-thenylamino-1-oxa-4-azaindene]	101 to 500 nM
COCC[C@H](N)Cc1oc2c(NCc3cccs3)cc(Cl)nc2c1Cl [Compound 274, 2-[(S)-2-amino-4-methoxybutyl]-3,5-dichloro-7-thenylamino-1-oxa-4-azaindene]	101 to 500 nM
Clc1cc(NCc2cccs2)c2occ(Br)c2n1 [Compound 279, (thenyl)(3-bromo-5-chloro-1-oxa-4-aza-7-indenyl)amine]	101 to 500 nM
Clc1cc(NCc2ccncc2)c2occ(Br)c2n1 [Compound 280, [(4-pyridyl)methyl](3-bromo-5-chloro-1-oxa-4-aza-7-indenyl)amine]	10000 to 40000 nM
C#Cc1c(C[C@@H](N)CC2(O)CC2)oc2c(NCc3cccs3)cc(Cl)nc12 [Compound 281, 1-[(2S)-2-amino-3-{5-chloro-3-ethynyl-7-[(thiophen-2-ylmethyl)amino]furo[3,2-b]pyridin-2-yl}propyl]cyclopropan-1-ol]	501 to 5000 nM
[2H]C([2H])([2H])OC[C@]([2H])(N)Cc1oc2c(NCc3cccs3)cc(Cl)nc2c1Cl [Compound 282, 2-[(R)-2-amino-3-(^2H3)methoxy(2-2H)propyl]-3,5-dichloro-7-thenylamino-1-oxa-4-azaindene]	0.01 to 100 nM
[2H][C@](N)(COC)Cc1oc2c(NCc3cccs3)cc(Cl)nc2c1Cl [Compound 283, 2-[(R)-2-amino-3-methoxy(2-^2H)propyl]-3,5-dichloro-7-thenylamino-1-oxa-4-azaindene]	0.01 to 100 nM
[2H]C([2H])([2H])OC[C@]([2H])(N)Cc1oc2c(NCc3cccs3)cc(Cl)nc2c1Br [Compound 284, 2-[(R)-2-amino-3-(^2H3)methoxy(2-2H)propyl]-3-bromo-5-chloro-7-thenylamino-1-oxa-4-azaindene]	0.01 to 100 nM
[2H]C([2H])([2H])OC[C@]([2H])(N)Cc1oc2c(NCc3cccs3)cc(Cl)nc2c1C#C [Compound 286, 2-[(R)-2-amino-3-(^2H3)methoxy(2-2H)propyl]-5-chloro-3-ethynyl-7-thenylamino-1-oxa-4-azaindene]	0.01 to 100 nM
[2H][C@](N)(COC)Cc1oc2c(NCc3cccs3)cc(Cl)nc2c1C#C [Compound 287, 2-[(R)-2-amino-3-methoxy(2-^2H)propyl]-5-chloro-3-ethynyl-7-thenylamino-1-oxa-4-azaindene]	0.01 to 100 nM
[2H]C([2H])(c1oc2c(NCc3cccs3)cc(Cl)nc2c1Br)[C@H](C)N [Compound 292, 2-[(S)-2-amino(1,1-^2H2)propyl]-3-bromo-5-chloro-7-thenylamino-1-oxa-4-azaindene]	0.01 to 100 nM
[2H]C([2H])(c1oc2c(NCc3cccs3)cc(Cl)nc2c1Cl)[C@H](C)N [Compound 293, 2-[(S)-2-amino(1,1-^2H2)propyl]-3,5-dichloro-7-thenylamino-1-oxa-4-azaindene]	0.01 to 100 nM
[2H]C([2H])(OC)[C@H](N)Cc1oc2c(NCc3cccs3)cc(Cl)nc2c1Br [Compound 296, 2-[(R)-2-amino-3-methoxy(3,3- ^2H2)propyl]-3-bromo-5-chloro-7-thenylamino-1-oxa-4-azaindene]	0.01 to 100 nM
[2H]C([2H])([2H])OC([2H])([2H])[C@H](N)Cc1oc2c(NCc3cccs3)cc(Cl)nc2c1Br [Compound 297, 2-[(R)-2-amino-3-(^2H3)methoxy(3,3- ^2H2)propyl]-3-bromo-5-chloro-7-thenylamino-1-oxa-4-azaindene]	0.01 to 100 nM
[2H]C([2H])(OC(F)F)[C@H](N)Cc1oc2c(NCc3cccs3)cc(Cl)nc2c1Br [Compound 298, 2-[(R)-2-amino-3-difluoromethoxy(3,3- ^2H2)propyl]-3-bromo-5-chloro-7-thenylamino-1-oxa-4-azaindene]	0.01 to 100 nM

SMILES	EC50
[2H]C([2H])(F)[C@H](N)Cc1oc2c(NCc3cccs3)cc(Cl)nc2c1Br [Compound 299, 2-[(R)-2-amino-3-fluoro(3,3-^2H2)propyl]-3-bromo-5-chloro-7-thenylamino-1-oxa-4-azaindene]	0.01 to 100 nM
[2H]C([2H])(OC)[C@H](N)Cc1oc2c(NCc3cccs3)cc(Cl)nc2c1C#C [Compound 300, 2-[(R)-2-amino-3-methoxy(3,3- ^2H2)propyl]-5-chloro-3-ethynyl-7-thenylamino-1-oxa-4-azaindene]	0.01 to 100 nM
[2H]C([2H])([2H])OC([2H])([2H])[C@H](N)Cc1oc2c(NCc3cccs3)cc(Cl)nc2c1C#C [Compound 301, 2-[(R)-2-amino-3-(^2H3)methoxy(3,3- ^2H2)propyl]-5-chloro-3-ethynyl-7-thenylamino-1-oxa-4-azaindene]	0.01 to 100 nM
[2H]C([2H])(OC(F)F)[C@H](N)Cc1oc2c(NCc3cccs3)cc(Cl)nc2c1C#C [Compound 302, 2-[(R)-2-amino-3-difluoromethoxy(3,3- ^2H2)propyl]-5-chloro-3-ethynyl-7-thenylamino-1-oxa-4-azaindene]	0.01 to 100 nM
[2H]C([2H])(c1oc2c(NCc3cccs3)cc(Cl)nc2c1Br)[C@@H](N)CF [Compound 305, 2-[(R)-2-amino-3-fluoro(1,1-^2H2)propyl]-3-bromo-5-chloro-7-thenylamino-1-oxa-4-azaindene]	0.01 to 100 nM
[2H]C([2H])([2H])OCC[C@H](N)Cc1oc2c(NCc3cccs3)cc(Cl)nc2c1C#C [Compound 320, 2-[(S)-2-amino-4-(^2H3)methoxybutyl]-5-chloro-3-ethynyl-7-thenylamino-1-oxa-4-azaindene]	0.01 to 100 nM
[2H]C([2H])(c1oc2c(NCc3cccs3)cc(Cl)nc2c1C#C)[C@H](C)N [Compound 327, 2-[(S)-2-amino(1,1-^2H2)propyl]-5-chloro-3-ethynyl-7-thenylamino-1-oxa-4-azaindene]	0.01 to 100 nM
[2H]C([2H])(c1oc2c(NCc3cccs3)cc(Cl)nc2c1C#C)[C@@H](N)COC [Compound 330, 2-[(R)-2-amino-3-methoxy(1,1- ^2H2)propyl]-5-chloro-3-ethynyl-7-thenylamino-1-oxa-4-azaindene]	0.01 to 100 nM
[2H]C([2H])(c1oc2c(NCc3cccs3)cc(Cl)nc2c1C#C)[C@@H](N)CF [Compound 335, 2-[(R)-2-amino-3-fluoro(1,1-^2H2)propyl]-5-chloro-3-ethynyl-7-thenylamino-1-oxa-4-azaindene]	0.01 to 100 nM
[2H]C([2H])(c1oc2c(NCc3cccs3)cc(Cl)nc2c1Cl)[C@@H](N)CF [Compound 336, 2-[(R)-2-amino-3-fluoro(1,1-^2H2)propyl]-3,5-dichloro-7-thenylamino-1-oxa-4-azaindene]	0.01 to 100 nM
COc1ccccc1CNc1cc(Cl)nc2c(Br)c(C[C@H](C)N)oc12 [Compound 337, 2-[(S)-2-aminopropyl]-3-bromo-5-chloro-7-{[(o-methoxyphenyl)methyl]amino}-1-oxa-4-azaindene]	10000 to 40000 nM
C[C@H](N)Cc1oc2c(NCc3ccc(C#N)cc3)cc(Cl)nc2c1Br [Compound 339, p-({2-[(S)-2-aminopropyl]-3-bromo-5-chloro-1-oxa-4-aza-7-indenylamino}methyl)benzonitrile]	10000 to 40000 nM
C[C@H](N)Cc1oc2c(NCc3ccc(F)cn3)cc(Cl)nc2c1Br [Compound 341, 2-[(S)-2-aminopropyl]-3-bromo-5-chloro-7-{[(5-fluoro-2-pyridyl)methyl]amino}-1-oxa-4-azaindene]	5000 to 10000 nM
C[C@H](N)Cc1oc2c(NCc3ccncc3F)cc(Cl)nc2c1Br [Compound 342, 2-[(S)-2-aminopropyl]-3-bromo-5-chloro-7-{[(3-fluoro-4-pyridyl)methyl]amino}-1-oxa-4-azaindene]	101 to 500 nM
COc1cc(CNc2cc(Cl)nc3c(Br)c(C[C@H](C)N)oc23)ccc1F [Compound 343, 2-[(S)-2-aminopropyl]-3-bromo-5-chloro-7-{[(4-fluoro-3-methoxyphenyl)methyl]amino}-1-oxa-4-azaindene]	501 to 5000 nM
O=C(O)c1oc2c(NCc3cccs3)cc(Cl)nc2c1Br [Compound 347, 3-bromo-5-chloro-7-thenylamino-1-oxa-4-aza-2-indenecarboxylic acid]	10000 to 40000 nM
COc1cccc(CNc2cc(Cl)nc3c(Br)c(C[C@H](C)N)oc23)n1 [Compound 348, 2-[(S)-2-aminopropyl]-3-bromo-5-chloro-7-{[(6-methoxy-2-pyridyl)methyl]amino}-1-oxa-4-azaindene]	10000 to 40000 nM
